This is an account of results in patent US8263598B2, “Substituted sulfonamide compounds” (Gruenenthal GmbH, priority 2008, dated 2012).

Assay [1] has as its target T1, human B1R receptor (hB1R) (Homo sapiens, UniProt P46663).
T1 construct: host or cells: CHO K1 cells
T1 sequence (P46663 1-353): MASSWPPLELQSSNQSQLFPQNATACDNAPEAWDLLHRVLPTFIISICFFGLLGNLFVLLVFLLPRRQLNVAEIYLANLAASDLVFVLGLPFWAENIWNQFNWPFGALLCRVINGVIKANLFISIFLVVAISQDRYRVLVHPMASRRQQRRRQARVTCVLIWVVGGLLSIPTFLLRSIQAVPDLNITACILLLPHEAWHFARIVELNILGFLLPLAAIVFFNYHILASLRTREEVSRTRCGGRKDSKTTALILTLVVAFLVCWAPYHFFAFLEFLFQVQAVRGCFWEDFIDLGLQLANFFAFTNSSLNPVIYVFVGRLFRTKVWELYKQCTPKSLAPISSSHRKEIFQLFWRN
Kind of assay: FLIPR Ca2+ assay on human bradykinin 1 receptor (CHO K1 hB1R cells). It is filed as cell-based. The note with it: test substance 10 μM; CHO K1 cells with human B1R gene; agonist Lys-Des-Arg9-bradykinin 0.5 nM; compared to maximum achievable inhibition. Put shortly:
(§1)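 CHO K1 cells stably expressing human or rat B1R were loaded with Fluo-4 and tested at 10 μM compound. Ca²⁺ signal was read in FLIPR as % activation versus agonist. After 10 min, agonist was added (hB1R: Lys-Des-Arg9-bradykinin 0.5 nM; rB1R: Des-Arg9-bradykinin 100 nM), and % inhibition was taken relative to maximum achievable inhibition.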

The target in assay [2] is T2, B1R receptor of rats (rB1R) (Rattus norvegicus, UniProt P97583).
T2 construct: host or cells: CHO K1 cells
T2 sequence (P97583 1-337): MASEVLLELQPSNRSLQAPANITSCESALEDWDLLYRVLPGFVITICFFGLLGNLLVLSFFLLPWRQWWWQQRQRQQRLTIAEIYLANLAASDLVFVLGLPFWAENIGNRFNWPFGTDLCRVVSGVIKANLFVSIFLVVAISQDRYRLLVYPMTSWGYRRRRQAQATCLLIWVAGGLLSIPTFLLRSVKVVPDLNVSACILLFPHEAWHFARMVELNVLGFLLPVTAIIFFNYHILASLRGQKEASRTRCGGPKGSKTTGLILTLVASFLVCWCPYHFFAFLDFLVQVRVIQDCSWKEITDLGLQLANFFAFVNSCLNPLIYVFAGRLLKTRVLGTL
Kind of assay: FLIPR Ca2+ assay on rat bradykinin 1 receptor (CHO K1 rB1R cells). The format is cell-based. Particulars: test substance 10 μM; CHO K1 cells with B1R gene of rats; agonist Des-Arg9-bradykinin 100 nM; compared to maximum achievable inhibition. Put shortly: as §1

Turning to `COc1cc(C)c(S(=O)(=O)N(C)CCOCC(=O)N2CCn3c(CN(C)C)ccc3C2Cc2ccccc2)c(C)c1C` (stereo not drawn) [Example 151, N-(2-(2-(1-benzyl-6-((dimethylamino)methyl)-3,4-dihydropyrrolo[1,2-a]pyrazin-2(1H)-yl)-2-oxoethoxy)ethyl)-4-methoxy-N,2,3,6-tetramethylbenzene-sulfonamide], the figures for the inhibition at 10 µM in assay [1] and in assay [2] were 102% and 103%, respectively.

Turning to `CCC1c2cccn2CCN1C(=O)COCCN(C)S(=O)(=O)c1c(C)cc(OC)c(C)c1C` (stereo not drawn) [Example 152, N-(2-(2-(1-ethyl-3,4-dihydropyrrolo[1,2-a]pyrazin-2(1H)-yl)-2-oxoethoxy)ethyl)-4-methoxy-N,2,3,6-tetramethylbenzenesulfonamide], the inhibition at 10 µM in assay [1] and in assay [2] was 102% throughout.

Consider `COc1cc(C)c(S(=O)(=O)N(C)CCOCC(=O)N2CCn3cccc3C2C(C)C)c(C)c1C` (stereo not drawn) [Example 153, N-(2-(2-(1-isopropyl-3,4-dihydropyrrolo[1,2-a]pyrazin-2(1H)-yl)-2-oxoethoxy)ethyl)-4-methoxy-N,2,3,6-tetramethylbenzenesulfonamide], for which the inhibition at 10 µM in assay [1] and in assay [2] was 103% throughout.

Turning to `CCCC1c2cccn2CCN1C(=O)COCCN(Cc1ccccc1)S(=O)(=O)c1c(C)cc(OC)cc1C` (stereo not drawn) [Example 154, N-benzyl-4-methoxy-2,6-dimethyl-N-(2-(2-oxo-2-(1-propyl-3,4-dihydropyrrolo[1,2-a]pyrazin-2(1H)-yl)ethoxy)ethyl)benzenesulfonamide], the inhibition at 10 µM in assay [1] was found to be 23%; in assay [2], 87%.

In the case of `COc1cc(C)c(S(=O)(=O)N(CCOCC(=O)N2CCn3cccc3C2C(C)C)Cc2ccccc2)c(C)c1` (stereo not drawn) [Example 155, N-benzyl-N-(2-(2-(1-isopropyl-3,4-dihydropyrrolo[1,2-a]pyrazin-2(1H)-yl)-2-oxoethoxy)ethyl)-4-methoxy-2,6-dimethylbenzenesulfonamide], the inhibition at 10 µM came to 75% in assay [1] and 101% in assay [2].

With `CCC1c2cccn2CCN1C(=O)C[C@@H](NS(=O)(=O)c1ccc2ccccc2c1)c1ccccc1` (stereo partly drawn) [Example 162, N-((1R)-3-(1-Ethyl-3,4-dihydropyrrolo[1,2-a]pyrazin-2(1H)-yl)-3-oxo-1-phenylpropyl)naphthalene-2-sulfonamide], the inhibition at 10 µM in assay [1] was 57%; in assay [2], 98%.

Consider `COc1cc(C)c(S(=O)(=O)N(C)CCOCC(=O)N2CCn3c(Cc4ccncc4)ccc3C2)c(C)c1` [Example 165, 4-Methoxy-N,2,6-trimethyl-N-(2-(2-oxo-2-(6-(pyridin-4-ylmethyl)-3,4-dihydropyrrolo[1,2-a]pyrazin-2(1H)-yl)ethoxy)ethyl)benzenesulfonamide], for which the inhibition at 10 µM in assay [1] came out at 100%; in assay [2] it was 99%.

Turning to `COc1cc(C)c(S(=O)(=O)N(C)CCOCC(=O)N2CCn3c(ccc3-c3cccnc3)C2)c(C)c1` [Example 166, 4-Methoxy-N,2,6-trimethyl-N-(2-(2-oxo-2-(6-(pyridin-3-yl)-3,4-dihydropyrrolo[1,2-a]pyrazin-2(1H)-yl)ethoxy)ethyl)benzenesulfonamide], the inhibition at 10 µM in assay [1] came out at 100%; in assay [2], 99%.

On to `O=C(CC(NS(=O)(=O)c1ccc2ccccc2c1)c1ccccc1)N1CCn2c(ccc2-c2cccnc2)C1` (stereo not drawn) [Example 167, N-(3-Oxo-1-phenyl-3-(6-(pyridin-3-yl)-3,4-dihydropyrrolo[1,2-a]pyrazin-2(1H)-yl)propyl)naphthalene-2-sulfonamide], for which the inhibition at 10 µM was 32% in assay [1] and 70% in assay [2].

Regarding `O=C(CC(NS(=O)(=O)c1ccc2ccccc2c1)c1ccccc1)N1CCn2c(ccc2-c2ccncc2)C1` (stereo not drawn) [Example 168, N-(3-Oxo-1-phenyl-3-(6-(pyridin-4-yl)-3,4-dihydropyrrolo[1,2-a]pyrazin-2(1H)-yl)propyl)naphthalene-2-sulfonamide], the inhibition at 10 µM in assay [1] is 55%; in assay [2] it was 57%.

With `O=C(CC(NS(=O)(=O)c1ccc2ccccc2c1)c1ccccc1)N1CCn2c(Cc3ccncc3)ccc2C1` (stereo not drawn) [Example 169, N-(3-Oxo-1-phenyl-3-(6-(pyridin-4-ylmethyl)-3,4-dihydropyrrolo[1,2-a]pyrazin-2(1H)-yl)propyl)naphthalene-2-sulfonamide], the inhibition at 10 µM turned out to be 78% in assay [1] and 98% in assay [2].

Take `COc1cc(C)c(S(=O)(=O)N(C)CCOCC(=O)N2CCn3c(CCc4cccnc4)ccc3C2)c(C)c1` [Example 170, 4-Methoxy-N,2,6-trimethyl-N-(2-(2-oxo-2-(6-(2-(pyridin-3-yl)ethyl)-3,4-dihydropyrrolo[1,2-a]pyrazin-2(1H)-yl)ethoxy)ethyl)benzenesulfonamide]: the results for the inhibition at 10 µM in assay [1] and in assay [2] were 99% and 98%, respectively.

Consider `O=C(CC(NS(=O)(=O)c1ccc2ccccc2c1)c1ccccc1)N1CCn2c(CCc3cccnc3)ccc2C1` (stereo not drawn) [Example 171, N-(3-Oxo-1-phenyl-3-(6-(2-(pyridin-3-yl)ethyl)-3,4-dihydropyrrolo[1,2-a]pyrazin-2(1H)-yl)propyl)naphthalene-2-sulfonamide], for which the figures for the inhibition at 10 µM in assay [1] and in assay [2] were 30% and 99%, respectively.

On to `COc1cc(C)c(S(=O)(=O)N(C)CCOCC(=O)N2CCn3c(CCc4ccncc4)ccc3C2)c(C)c1` [Example 172, 4-Methoxy-N,2,6-trimethyl-N-(2-(2-oxo-2-(6-(2-(pyridin-4-yl)ethyl)-3,4-dihydropyrrolo[1,2-a]pyrazin-2(1H)-yl)ethoxy)ethyl)benzenesulfonamide], for which the inhibition at 10 µM in assay [1] amounted to 100%; in assay [2], 97%.

On to `O=C(CC(NS(=O)(=O)c1ccc2ccccc2c1)c1ccccc1)N1CCn2c(CCc3ccncc3)ccc2C1` (stereo not drawn) [Example 173, N-(3-Oxo-1-phenyl-3-(6-(2-(pyridin-4-yl)ethyl)-3,4-dihydropyrrolo[1,2-a]pyrazin-2(1H)-yl)propyl)naphthalene-2-sulfonamide], for which the inhibition at 10 µM is 20% in assay [1] and 75% in assay [2].

In the case of `COc1cc(C)c(S(=O)(=O)N(C)CCOCC(=O)N2CCn3c(Cc4cccnc4)ccc3C2)c(C)c1` [Example 174, 4-Methoxy-N,2,6-trimethyl-N-(2-(2-oxo-2-(6-(pyridin-3-ylmethyl)-3,4-dihydropyrrolo[1,2-a]pyrazin-2(1H)-yl)ethoxy)ethyl)benzenesulfonamide], the inhibition at 10 µM in assay [1] turned out to be 100%; in assay [2] it was 94%.

On to `COc1cc(C)c(S(=O)(=O)N(C)CCOCC(=O)N2CCn3cc(-c4ccncc4)nc3C2)c(C)c1` [Example 175, 4-Methoxy-N,2,6-trimethyl-N-(2-(2-oxo-2-(2-(pyridin-4-yl)-5,6-dihydroimidazo[1,2-a]pyrazin-7(8H)-yl)ethoxy)ethyl)benzenesulfonamide], for which the inhibition at 10 µM in assay [1] was found to be 100%; in assay [2] it was 102%.

On to `O=C(CC(NS(=O)(=O)c1ccc2ccccc2c1)c1ccccc1)N1CCn2c(Cc3cccnc3)ccc2C1` (stereo not drawn) [Example 176, N-(3-Oxo-1-phenyl-3-(6-(pyridin-3-ylmethyl)-3,4-dihydropyrrolo[1,2-a]pyrazin-2(1H)-yl)propyl)naphthalene-2-sulfonamide], for which the inhibition at 10 µM in assay [1] was found to be 45%; in assay [2], 87%.

`COc1cc(C)c(S(=O)(=O)N(C)CCOCC(=O)N2CCn3c(ccc3-c3ccncc3)C2)c(C)c1` [Example 177, 4-Methoxy-N,2,6-trimethyl-N-(2-(2-oxo-2-(6-(pyridin-4-yl)-3,4-dihydropyrrolo[1,2-a]pyrazin-2(1H)-yl)ethoxy)ethyl)benzenesulfonamide]: the inhibition at 10 µM was found to be 99% in assay [1] and 97% in assay [2].

For `COc1cc(C)c(S(=O)(=O)N(C)CCOCC(=O)N2CCn3cc(CCc4ccncc4)nc3C2)c(C)c1` [Example 178, 4-Methoxy-N,2,6-trimethyl-N-(2-(2-oxo-2-(2-(2-(pyridin-4-yl)ethyl)-5,6-dihydroimidazo[1,2-a]pyrazin-7(8H)-yl)ethoxy)ethyl)benzenesulfonamide], the inhibition at 10 µM in assay [1] came out at 99%; in assay [2], 100%.

For `COc1cc(C)c(S(=O)(=O)N(C)CCOCC(=O)N2CCn3cc(Cc4ccncc4)nc3C2)c(C)c1` [Example 179, 4-Methoxy-N,2,6-trimethyl-N-(2-(2-oxo-2-(2-(pyridin-4-ylmethyl)-5,6-dihydroimidazo[1,2-a]pyrazin-7(8H)-yl)ethoxy)ethyl)benzenesulfonamide], the inhibition at 10 µM in assay [1] and in assay [2] was 100% each time.

The term inhibition denotes the relative decrease from the control value, in per cent.
